{
  "source": "paper PMC9231138",
  "about": "“Dihydrotanshinone I Enhances Cell Adhesion and Inhibits Cell Migration in Osteosarcoma U−2 OS Cells through CD44 and Chemokine Signaling” (Molecules, 2022)",
  "key": {"[1]": {"test_system": "U−2 OS cells", "test": "MTT cell proliferation assay, U−2 OS cells", "type": "cell-based", "details": "Homo sapiens, U2OS", "method": "The effects of tanshinones (DS−1 to DS−5) on the proliferation of U−2 OS cells, HeLa cells, and NRK−49F cells were measured by the classical MTT method with minor modifications as follows. Cells were seeded at 5000 per well in 96-well plates, with each group being repeated in 5 wells, and were incubated for 12 h. DS−1 to DS−5 were added at gradient concentrations, then incubated for 24 and 48 h, respectively. Then, 20 μL MTT solution (solved in PBS, 5 mg/mL) was added to every well, and the cells were further incubated at 37 °C for 4 h until a purple precipitate was visible. The plate was centrifuged at 1000 rpm for 1 min; the supernatant was suctioned, and 150 μL of DMSO was added per well; the plate was shaken on a shaker protected from light for 15 min. We placed the plate in an enzyme marker and measured the absorbance values at a 490 nm wavelength."}, "[2]": {"test_system": "CDK4", "test": "RT-PCR CDK4 mRNA in U−2 OS cells", "type": "cell-based, human", "details": "24 h", "method": "(§1) Total RNA within cells was extracted by the RNAeasy™ Animal Long RNA Isolation Kit with Spin Column (Shanghai, Beyotime); the concentrations and OD260/OD280 and OD230/OD260 values were measured by NanoDrop. Five micrograms of RNA was used for reverse transcription; each sample was diluted to 16 μL, and 4 μL of synthesized premix solution (5×) was added, then the mixtures were placed in a 42 °C water bath for 10 min, then an 80 °C water bath for 10 min to deactivate reverse transcriptase. After reverse transcription, each sample was diluted to 140 μL. PCR amplification was carried out by the ABI700 real-time PCR system, and the amplification reaction was detected with a SYBR probe. After PCR, actin and GAPDH were used as internal references, and the relative standard curve method (2^−ΔΔcT) determined the relative expression of mRNA."}, "[3]": {"test_system": "NRK−49F cells", "test": "Cell adhesion against trypsin digestion, NRK−49F cells", "type": "cell-based, rat", "details": "DS-1 6.25, 12.5 μM for 24 h"}, "[4]": {"test_system": "slug", "test": "RT-PCR slug mRNA in U−2 OS cells", "type": "cell-based, human", "details": "24 h", "method": "as §1"}, "[5]": {"test_system": "phospho-STAT3", "test": "Western blot phospho-STAT3", "type": "cell-based, human", "details": "24 h", "method": "(§2) Sample preparation: U−2 OS cells seeded in 10 cm Petri dishes were collected and washed with ice-cold PBS and RIPA lysis buffer with PMAF; phosphatase inhibitor was added, and the tubes were placed on ice for 30 min and vortexed for 30 s at intervals of 10 min. The samples were centrifuged at 12,000 g at 4 °C for 15 min, and the supernatants were collected in new centrifuge tubes. The protein samples were placed on ice, and the concentration of each protein sample was measured by the BCA kit (Thermo). The protein concentration was adjusted to the same by milli Q ultrapure water.\n(§3) Loading and running the gel: Equal amounts of protein were loaded into the wells of the 10% SDS-PAGE gel, along with molecular weight markers, and 15 μg of total protein from the cell lysate was loaded. We then ran the gel for 45 min at 200 V.\n(§4) Transferring the protein: We prepared the transfer stack as follows: negative plate, sponge, filter paper, gel, PVDF membrane, filter paper, sponge, and positive plate. The transfer was for 90 min at 200 mA.\nAntibody staining: We blocked the membrane for 1 h at room temperature using 5% blocking solution, then incubated the membrane with appropriate dilutions of the primary antibody in the blocking solution overnight at 4 °C. We then washed the membrane with TBST reagent 3 times, 5 min each. Then, we incubated the membrane with the recommended dilution of labeled secondary antibody in blocking solution at room temperature for 1 h and washed the membrane with TBST reagent 3 times, 5 min each. For signal development, super-enhanced chemiluminescence detection reagents were added to the surface of the membrane for 1 min, then excess reagent was removed, and the membrane was covered in transparent plastic wrap. Images were acquired using darkroom development techniques for chemiluminescence and analyzed by Image J."}, "[6]": {"test_system": "E-cadherin", "test": "RT-PCR E-cadherin mRNA in U−2 OS cells", "type": "cell-based, human", "details": "24 h", "method": "as §1"}, "[7]": {"test_system": "AKT", "test": "Western blot AKT", "type": "cell-based, human", "details": "DS−1 2.5, 5.0, and 7.5 µM, 24 h", "method": "as §2, §3, §4\n(§5) Antibody staining: We blocked the membrane for 1 h at room temperature using 5% blocking solution, then incubated the membrane with appropriate dilutions of the primary antibody in the blocking solution overnight at 4 °C. […] Images were acquired using darkroom development techniques for chemiluminescence and analyzed by Image J."}, "[8]": {"test_system": "CD44", "test": "Western blot of 80 kDa and 70 kDa CD44", "type": "cell-based, human", "details": "DS−1 2.5, 5.0, and 7.5 µM for 24 h", "method": "as §2, §3, §4, §5"}, "[9]": {"test_system": "U−2 OS cells", "test": "Length of actin protrusions (Image J)", "type": "cell-based, human", "details": "DS−1 for 24 h", "method": "Figure 8 CD44 knockdown reduced cell adhesion by shortening cell protrusions. (A) U−2 OS cells transfected with CD44 siRNA and no siRNA were seeded into a 24-well plate treated with 7.5 μM DS−1 for 24 h, and the expression of CD44 was detected by immunofluorescence. (B) CD44 expression of U−2 OS cells was detected by Western blotting after being treated with siRNA for 0, 24, and 36 h. (C) U−2 OS cells were first transfected with/without CD44 siRNA and then treated with DS−1 for 24 h, and its actin morphologies were detected. The representative magnified actin morphologies are listed in (D). (E) The lengths of protrusions in (C) were analyzed by Image J and are shown in a scatterplot graph. The lengths of 20 protrusions from actin in (C) were calculated. Each value is the average of 20 lengths of protrusions, ** p < 0.01, *** p < 0.005. (F) U−2 OS cells were transfected with CD44 siRNA, then treated with 0 and 7.5 μM DS−1 for 24 h and digested with trypsin at 25 °C; the digestion time was recorded by a microscope, and photos were taken every 30 s. The percentage of digested cells is recorded in (G).\nActin promotes the formation of protrusions around the cells. After CD44 knockdown and DS−1 treatment, the morphology of actin was observed. The average length of protrusions was measured by Image J [59]. […]"}, "[10]": {"test_system": "MT-MMP-1", "test": "RT-PCR MT-MMP-1 mRNA in U−2 OS cells", "type": "cell-based, human", "method": "as §1"}},
  "note": "Read-outs that look alike come from different tables or passages of the source.",
  "data": [
    {"smiles": "Cc1cccc2c3c(ccc12)C1=C(C(=O)C3=O)[C@@H](C)CO1", "note": "[DS−1, 15,16-Dihydrotanshinone I]", "values": [
      {"measurement": "IC50", "setting": "[1]; 24 h, read-out: IC50 U−2 OS cells (24 h)", "value": "3830 ± 490", "unit": "nM"},
      {"measurement": "IC50", "setting": "[1]; 48 h, read-out: IC50 U−2 OS cells (48 h)", "value": "1990 ± 370", "unit": "nM"},
      {"measurement": "CDK4 mRNA, fold of the control group", "setting": "[2]; first of three DS−1 doses (2.5 µM per Fig. 5 legend)", "value": "0.53 ± 0.06", "unit": "fold"},
      {"measurement": "CDK4 mRNA, fold of the control group", "setting": "[2]; second of three DS−1 doses (5.0 µM per Fig. 5 legend)", "value": "0.37 ± 0.02", "unit": "fold"},
      {"measurement": "CDK4 mRNA, fold of the control group", "setting": "[2]; third of three DS−1 doses (7.5 µM per Fig. 5 legend)", "value": "0.29 ± 0.05", "unit": "fold"},
      {"measurement": "cell adhesion on the cell culture plate against trypsin digestion", "setting": "[3]", "value": "stronger cell adhesion"},
      {"measurement": "slug mRNA, fold of the control group", "setting": "[4]; DS−1 5.0 µM", "value": "0.58 ± 0.13", "unit": "fold"},
      {"measurement": "slug mRNA, fold of the control group", "setting": "[4]; DS−1 7.5 µM", "value": "0.45 ± 0.07", "unit": "fold"},
      {"measurement": "phospho-STAT3, fold of the control group", "setting": "[5]; DS−1 2.5 µM", "value": "0.59 ± 0.09", "unit": "fold"},
      {"measurement": "phospho-STAT3, fold of the control group", "setting": "[5]; DS−1 5.0 µM", "value": "0.43 ± 0.03", "unit": "fold"},
      {"measurement": "phospho-STAT3, fold of the control group", "setting": "[5]; DS−1 7.5 µM", "value": "0.32 ± 0.03", "unit": "fold"},
      {"measurement": "ratio of pSTAT3/STAT3", "setting": "[5]; DS−1 2.5, 5.0, and 7.5 µM", "value": "significantly decreased"},
      {"measurement": "E-cadherin mRNA, fold of the control group", "setting": "[6]; DS−1 2.5 µM", "value": "1.21 ± 0.16", "unit": "fold"},
      {"measurement": "E-cadherin mRNA, fold of the control group", "setting": "[6]; DS−1 5.0 µM", "value": "1.26 ± 0.25", "unit": "fold"},
      {"measurement": "E-cadherin mRNA, fold of the control group", "setting": "[6]; DS−1 7.5 µM", "value": "1.61 ± 0.16", "unit": "fold"},
      {"measurement": "expression of AKT", "setting": "[7]", "value": "no significant change"},
      {"measurement": "70 kDa CD44 protein", "setting": "[8]", "value": "decreased"},
      {"measurement": "80 kDa CD44 protein", "setting": "[8]", "value": "significantly increased"},
      {"measurement": "average length of protrusions", "setting": "[9]; CD44 knockdown group, knockdown without DS−1 0.203 ± 0.056 μm", "value": "0.213 ± 0.061", "unit": "μm"},
      {"measurement": "average length of protrusions", "setting": "[9]; no CD44 siRNA, control 0.307 ± 0.097 μm", "value": "0.403 ± 0.103", "unit": "μm"},
      {"measurement": "MT-MMP-1 mRNA expression, fold", "setting": "[10]; DS−1 2.5 µM", "value": "0.92 ± 0.14", "unit": "fold"},
      {"measurement": "MT-MMP-1 mRNA expression, fold", "setting": "[10]; DS−1 5.0 µM", "value": "0.72 ± 0.03", "unit": "fold"},
      {"measurement": "MT-MMP-1 mRNA expression, fold", "setting": "[10]; DS−1 7.5 µM", "value": "0.07 ± 0.13", "unit": "fold"}
    ]}
  ]
}
